Values of other authors, collected in patent publication US8247391B2, “Gel compositions” (De Montfort University, priority 2001, dated 2012).
≈ marks a conversion by molar mass, not a printed value.

Settings: room temperature, pH 7.3 buffer (with antioxidants)

| water solubility | SMILES |
| --- | --- |
| 0.11 µM (≈ 0.0313 µg/mL) | CC1=C(/C=C/C(C)=C/C=C/C(C)=C/C=O)C(C)(C)CCC1 [retinal, retinaldehyde] |
| 0.06 µM (≈ 0.0172 µg/mL) | CC1=C(/C=C/C(C)=C/C=C/C(C)=C/CO)C(C)(C)CCC1 [retinol, Retinol] |

| SMILES | water solubility |
| --- | --- |
| CC1=C(/C=C/C(C)=C/C=C/C(C)=C/C(=O)O)C(C)(C)CCC1 [retinoic acid] | 0.21 µM (≈ 0.0631 µg/mL) |
